Among the data in PubChem BioAssay (NCI) are TGI and GI50 values, retold here.

Among the test systems are HCT-116 colon; HCC-2998 colon; NCI-H23 lung; EKVX NSCLC; MOLT-4 leukemia; CAKI-1 renal; NCI-H226 lung; SK-MEL-2 melanoma; UACC-257 melanoma; HS 578T breast.
What all share (assay): growth of human tumour cells (NCI), 48 h

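The compound was tested at five concentrations on cells cultured in 96-well plates, with a 48-hour exposure period. GI50 = concentration required for 50% inhibition of growth. TGI denotes the concentration required for complete inhibition of growth.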

Consider `O=C(N/N=C(/c1nc2ccc(Cl)cc2[nH]c1=O)C(O)c1ccc(Cl)cc1Cl)c1ccncc1` (stereo not given), for which the TGI with HCT-116 colon, in the assay on HCC-2998 colon, with NCI-H23 lung, with EKVX NSCLC, in the assay with MOLT-4 leukemia and in the assay with CAKI-1 renal was > 100 µM in each case. The TGI in the assay with NCI-H226 lung, in the assay on SK-MEL-2 melanoma and in the assay on UACC-257 melanoma was > 100 µM in each case.
As for `O=C(Nn1c(-c2ccccc2)nc2ccccc2c1=O)c1ccccn1`, the TGI with HCT-116 colon, in the assay on HCC-2998 colon, with NCI-H23 lung, in the assay on EKVX NSCLC, in the assay on MOLT-4 leukemia and in the assay on HS 578T breast was > 100 µM each time. The TGI in the assay with UACC-257 melanoma was > 100 µM.
In the case of `COc1ccc(-c2nn(-c3cccc(Cl)c3)cc2C=C(C#N)C#N)cc1`, the GI50 in the assay on HCT-116 colon is 1.73 µM; in the assay with HCC-2998 colon, 3.67 µM; in the assay on NCI-H23 lung, 2.68 µM; in the assay on MOLT-4 leukemia it was 2.12 µM; in the assay on NCI-H226 lung it was 2.74 µM; in the assay with SK-MEL-2 melanoma, 2.37 µM. Also, the GI50 is 1.57 µM with HS 578T breast and 1.82 µM in the assay with UACC-257 melanoma. Besides, the TGI was 4.44 µM with HCT-116 colon; 14 µM in the assay with HCC-2998 colon; 7.66 µM in the assay with NCI-H23 lung; 6.12 µM in the assay with MOLT-4 leukemia; 11.8 µM in the assay on NCI-H226 lung; 4.83 µM in the assay with SK-MEL-2 melanoma. The TGI with HS 578T breast came out at 7.04 µM; in the assay on UACC-257 melanoma it was 5.27 µM.
As for `COc1ccc2cccc(C(=O)c3ccc(C)c4c3CCC4)c2c1`, the TGI in the assay with HCT-116 colon was > 100 µM; with HCC-2998 colon, 43.1 µM; with NCI-H23 lung, 77 µM; in the assay with EKVX NSCLC it was > 100 µM; in the assay on MOLT-4 leukemia, 97.2 µM; in the assay on CAKI-1 renal, 80.8 µM. Also, the TGI is > 100 µM with NCI-H226 lung, 98.2 µM in the assay with SK-MEL-2 melanoma and > 100 µM in the assay on UACC-257 melanoma.
Regarding `CC(C)(C)N=C1CC(C)(C)c2ccccc2C(=Nc2ccccc2)S1`, the TGI in the assay on HCT-116 colon was > 100 µM; in the assay with HCC-2998 colon it was > 100 µM; in the assay with NCI-H23 lung it was 98.6 µM; with EKVX NSCLC, > 100 µM; with MOLT-4 leukemia, 69.2 µM; in the assay on CAKI-1 renal, > 100 µM. The TGI in the assay on NCI-H226 lung is > 100 µM; with SK-MEL-2 melanoma, 99 µM; with UACC-257 melanoma it was > 100 µM.
Regarding `Cc1nc(C)c(C(=O)Nc2cccc3c2C(=O)NC3=O)cc1C(=O)Nc1cccc2c1C(=O)NC2=O`, the TGI in the assay on HCT-116 colon, with HCC-2998 colon, in the assay on NCI-H23 lung, with EKVX NSCLC, in the assay with MOLT-4 leukemia and with CAKI-1 renal was > 100 µM in each case. In addition, the TGI in the assay with NCI-H226 lung, in the assay on SK-MEL-2 melanoma and in the assay on UACC-257 melanoma was > 100 µM each time.
As to `CN1CCn2c(Br)ccc2C1=O`, the TGI in the assay on HCT-116 colon, in the assay with HCC-2998 colon, in the assay with NCI-H23 lung, in the assay on EKVX NSCLC, in the assay on MOLT-4 leukemia and with CAKI-1 renal was > 100 µM each time. Besides, the TGI in the assay on NCI-H226 lung, in the assay on SK-MEL-2 melanoma and in the assay with UACC-257 melanoma was > 100 µM throughout.
For the molecule `CCCCc1c2c(nc3c1CCc1cc4c(nc1-3)-c1nc3c(c(CCCC)c1CC4)CCC/C3=C\c1ccccc1)/C(=C/c1ccccc1)CCC2`, the TGI in the assay with HCT-116 colon, with HCC-2998 colon, in the assay with NCI-H23 lung, with EKVX NSCLC, in the assay on MOLT-4 leukemia and in the assay with CAKI-1 renal was > 100 µM throughout. The TGI in the assay on NCI-H226 lung, with SK-MEL-2 melanoma and with UACC-257 melanoma was > 100 µM throughout.
Regarding `CC(=O)OCC1OC(OC2C(COC(C)=O)OC(OCCC[S-])C(OC(C)=O)C2OC(C)=O)C(OC(C)=O)C(OC(C)=O)C1OC(C)=O.[Au+].c1ccc(CN2[CH-]N(Cc3ccccc3)C(c3ccccc3)=C2c2ccccc2)cc1` (stereo not given), the GI50 in the assay with HCT-116 colon was 2.72 µM; with HCC-2998 colon, 3.49 µM; in the assay with NCI-H23 lung, 3.23 µM; with EKVX NSCLC, 3.15 µM; in the assay with MOLT-4 leukemia, 3.42 µM; in the assay on NCI-H226 lung it was 4.68 µM. Besides, the figures for the GI50 with SK-MEL-2 melanoma, in the assay with HS 578T breast and in the assay on UACC-257 melanoma were 2.99 µM, 9.16 µM and 3.44 µM, respectively. Also, the TGI in the assay with HCT-116 colon amounted to 10.9 µM; in the assay on HCC-2998 colon, 15.4 µM; with NCI-H23 lung it was 14 µM; in the assay with EKVX NSCLC, 15.9 µM; in the assay on MOLT-4 leukemia, 26 µM; in the assay on NCI-H226 lung it was 33 µM. In addition, the results for the TGI with SK-MEL-2 melanoma, in the assay on HS 578T breast and in the assay with UACC-257 melanoma were 8.92 µM, 87.7 µM and 10.4 µM, respectively.
Regarding `O=P(Oc1ccc(Cl)cc1)(Oc1ccc(Cl)cc1)N1CC1`, the TGI in the assay on HCC-2998 colon, in the assay with NCI-H23 lung, in the assay with EKVX NSCLC, with MOLT-4 leukemia, in the assay with NCI-H226 lung and with SK-MEL-2 melanoma was > 10 µM throughout. In addition, the TGI in the assay with HS 578T breast and in the assay with UACC-257 melanoma was > 10 µM throughout.
As to `N/C(=N\NS(=O)(=O)c1ccccc1)Oc1ccc(Cl)cc1`, the TGI in the assay with HCT-116 colon, with HCC-2998 colon, in the assay with NCI-H23 lung, with EKVX NSCLC, in the assay with MOLT-4 leukemia and in the assay on CAKI-1 renal was > 100 µM in each case. Further, the TGI in the assay with NCI-H226 lung, in the assay with SK-MEL-2 melanoma and in the assay on UACC-257 melanoma was > 100 µM in each case.
`COc1cc([C@@H]2c3cc4c(cc3[C@@H](NC(=O)c3ccc(N)cc3)C3COC(=O)[C@@H]32)OCO4)cc(OC)c1O` (stereo not given in full): the TGI stood at 17 µM in the assay with HCT-116 colon; 17.2 µM with HCC-2998 colon; 4.97 µM with NCI-H23 lung; 23.7 µM in the assay with EKVX NSCLC; 3.78 µM in the assay on MOLT-4 leukemia; 89.4 µM in the assay on CAKI-1 renal. Also, the TGI was 6.91 µM with NCI-H226 lung, 28.3 µM in the assay with SK-MEL-2 melanoma and > 100 µM in the assay on UACC-257 melanoma.
Consider `COC(=O)C1=C(OC)c2cc3c(cc2C(c2cc(OC)c(OC)c(OC)c2)C1C(=O)OC)OCO3` (stereo not given), for which the TGI with HCT-116 colon, with HCC-2998 colon, with NCI-H23 lung, in the assay on EKVX NSCLC, with MOLT-4 leukemia and with CAKI-1 renal was > 100 µM in each case. Besides, the TGI in the assay on NCI-H226 lung, in the assay on SK-MEL-2 melanoma and in the assay on UACC-257 melanoma was > 100 µM throughout.
